Experimental findings from US4324800A, “Novel benzylalcohol derivatives and processes for preparing same” (Tanabe Seiyaku Co., Ltd., priority 1980, dated 1982) are described below.

The test system of this assay is ventricular contractile force. Nature of the assay: Ventricular contractile force in anesthetized open-chest dogs (strain gauge on left ventricle), i.v. injection into left saphenous vein. The note with it: for ED (30% increase): Canis lupus familiaris, iv, male dogs, anesthetized, injected into left saphenous vein, read-out: Dose which induces about 30% increase in the ventricular contractile force; for t 1/2: period of time in decreasing the cardiac contractile force to 50% of its maximum value: male dogs 11 to 13 kg, sodium pentobarbital anesthesia, i.v., dose inducing about 30% increase in ventricular contractile force, ± S.E. It counts as in vivo. The method, then: Male dogs weighing about 11 to 13 kg were anesthetized with sodium pentobarbital (30 mg/kg, i.v.). Under artificial respiration, the heart was exposed by thoractomy, and a calibrated strain gauge was attached to the wall of the left ventricle for oscillographical measurement of the ventricular contractile force. The heart rate was recorded by cardiotachography, triggered by arterial pulse. A test compound was injected into the left saphenous vein at a dose which induces about 30% increase in the ventricular contractile force.
*:Period of time in decreasing the cardiac contractile force to 50% of it

The structures appear in SMILES notation.

As to `COc1ccc(CCNCC(O)c2ccc(OC(=O)c3ccc(C)cc3)cc2)cc1OC` (stereo not drawn) [α-(3,4-dimethoxyphenethylaminomethyl)-4-p-toluoyloxybenzylalcohol], the ED (30% increase) was found to be 0.04 mg/kg and the “t 1/2: period of time in decreasing the cardiac contractile force to 50% of its maximum value” was determined as 24.92 ± 0.417 min.

As to `COc1ccc(CCNCC(O)c2ccc(OC(=O)C(C)(C)C)cc2)cc1OC` (stereo not drawn) [α-(3,4-dimethoxyphenethylaminomethyl)-4-pivaloyloxybenzylalcohol], the ED (30% increase) stood at 0.037 mg/kg and the “t 1/2: period of time in decreasing the cardiac contractile force to 50% of its maximum value” turned out to be 20.53 ± 1.18 min.

As to `COc1ccc(CCNCC(O)c2ccc(OC(=O)c3ccccc3)cc2)cc1OC` (stereo not drawn) [α-(3,4-dimethoxyphenethylaminomethyl)-4-benzoyloxybenzylalcohol], the ED (30% increase) is 0.039 mg/kg and the “t 1/2: period of time in decreasing the cardiac contractile force to 50% of its maximum value” worked out at 24.22 ± 0.717 min.
